Experimental data reported in patent publication US20250152585A1, “PHARMACEUTICAL COMPOUND” (Duke Street Bio Limited, priority 2022, published 2025).
pIC50, pKd: −log10 of the molar value. Read-outs that look alike come from different tables or passages of the source.

What was measured:
[1] = target: T1, full length N-terminally FLAG-tagged PARP1 (Homo sapiens, UniProt P09874); assay: PARP1 probe displacement HTRF assay; details: probe displacement HTRF; for Selectivity: PARP1 over PARP2, ratio Kd (PARP2)/Kd (PARP1); for pKd: binned Kd
[2] = target: T2, N-terminally FLAG-tagged PARP2 (amino acids 1-583) (Homo sapiens, UniProt Q9UGN5); assay: PARP2 probe displacement HTRF assay; assay type: binding; details: binned Kd, probe displacement HTRF
T2 construct: N-terminally FLAG-tagged PARP2 (amino acids 1-583)
Description: Data analysis was performed identical as for PARP1.

[3] = target: T1, full length N-terminally FLAG-tagged PARP1; assay: PARP1 biochemical DELFIA assay (auto-PARylation); set-up: recombinant full length human N-terminally FLAG-tagged PARP1; details: binned IC50, biochemical auto-PARylation assay

T1 sequence (P09874 whole entry, the tested form may be a part): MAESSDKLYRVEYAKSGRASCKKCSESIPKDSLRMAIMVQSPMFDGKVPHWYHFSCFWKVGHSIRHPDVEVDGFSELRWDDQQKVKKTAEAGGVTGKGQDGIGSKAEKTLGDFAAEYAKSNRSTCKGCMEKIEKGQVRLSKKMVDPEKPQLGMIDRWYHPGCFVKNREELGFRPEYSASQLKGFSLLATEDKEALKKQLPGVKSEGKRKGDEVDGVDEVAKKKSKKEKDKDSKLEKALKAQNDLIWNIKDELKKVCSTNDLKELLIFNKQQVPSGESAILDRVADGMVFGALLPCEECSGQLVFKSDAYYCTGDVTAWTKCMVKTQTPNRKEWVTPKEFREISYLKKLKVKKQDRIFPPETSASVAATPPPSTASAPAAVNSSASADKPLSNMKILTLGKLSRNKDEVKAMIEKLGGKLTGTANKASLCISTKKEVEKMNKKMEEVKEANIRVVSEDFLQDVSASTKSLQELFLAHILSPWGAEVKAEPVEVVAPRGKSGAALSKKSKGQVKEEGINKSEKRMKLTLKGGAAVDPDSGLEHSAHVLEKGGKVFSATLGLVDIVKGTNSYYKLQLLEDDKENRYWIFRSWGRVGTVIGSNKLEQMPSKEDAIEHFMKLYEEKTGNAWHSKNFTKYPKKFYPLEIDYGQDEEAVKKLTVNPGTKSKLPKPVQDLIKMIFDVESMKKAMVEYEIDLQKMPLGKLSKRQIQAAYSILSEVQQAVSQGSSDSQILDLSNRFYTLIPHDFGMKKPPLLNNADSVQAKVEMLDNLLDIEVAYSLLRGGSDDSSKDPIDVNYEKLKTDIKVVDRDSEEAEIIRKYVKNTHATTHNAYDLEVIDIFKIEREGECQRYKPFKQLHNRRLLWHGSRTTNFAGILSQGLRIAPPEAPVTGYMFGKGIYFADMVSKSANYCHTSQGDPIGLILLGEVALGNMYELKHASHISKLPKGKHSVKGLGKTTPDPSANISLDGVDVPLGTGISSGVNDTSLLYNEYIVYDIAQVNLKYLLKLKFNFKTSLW
T2 sequence (Q9UGN5 whole entry, the tested form may be a part): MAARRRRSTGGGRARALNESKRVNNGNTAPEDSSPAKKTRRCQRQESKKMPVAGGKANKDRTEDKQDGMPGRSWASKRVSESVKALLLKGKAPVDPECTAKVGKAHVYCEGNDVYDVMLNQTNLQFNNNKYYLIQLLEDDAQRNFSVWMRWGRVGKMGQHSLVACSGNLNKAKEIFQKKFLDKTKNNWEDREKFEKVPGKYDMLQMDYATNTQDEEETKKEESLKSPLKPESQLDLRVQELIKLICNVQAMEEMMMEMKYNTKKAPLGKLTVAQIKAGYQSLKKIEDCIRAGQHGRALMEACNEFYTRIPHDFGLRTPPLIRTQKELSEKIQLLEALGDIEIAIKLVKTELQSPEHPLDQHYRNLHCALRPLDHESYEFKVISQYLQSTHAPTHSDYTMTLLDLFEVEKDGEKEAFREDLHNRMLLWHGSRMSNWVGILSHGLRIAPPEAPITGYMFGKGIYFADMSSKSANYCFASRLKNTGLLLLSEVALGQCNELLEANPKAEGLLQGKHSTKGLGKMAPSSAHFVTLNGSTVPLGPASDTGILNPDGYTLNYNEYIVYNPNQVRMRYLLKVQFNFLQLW

| Compound | pKd ([1]; read-out: PARP1 HTRF) | pKd [2] | pIC50 [3] | pKd ([1]; PARP1 HTRF) | Selectivity [1] |
| --- | --- | --- | --- | --- | --- |
| CS(=O)(=O)Nc1ccc(N2CCC(N3CCC(c4nc5ccccc5c(=O)[nH]4)C3)CC2)cn1 (single isomer, unassigned) [Compound 291b] | 6.00 to 7.00 | 5.00 to 6.00 | 6.00 to 7.00 |  | − (− indicates a value of less than 10) |
| CNC(=O)c1ccc(N2CCC(N3CCC(c4nc5c(C(F)(F)F)c[nH]c5c(=O)[nH]4)C3)CC2)cn1 (single isomer, unassigned) [Compound 293a] | < 5.00 | < 5.00 | < 5.00 |  | − (− indicates a value of less than 10) |
| CCc1ccc(C2CCN(C3CCN(c4cnc(C(=O)NC)cc4C(F)(F)F)CC3)C2)[nH]c1=O (single isomer, unassigned) [Compound 298a] | 5.00 to 6.00 | < 5.00 | 5.00 to 6.00 |  | − (− indicates a value of less than 10) |
| CCc1ccc(C2CCN(C3CCN(c4cnc(C(=O)NC)cc4C(F)(F)F)CC3)C2)[nH]c1=O (single isomer, unassigned) [Compound 298b] | 7.00 to 8.00 | 5.00 to 6.00 | 7.00 to 8.00 |  | +++ (+++ indicate a value of at least 100) |
| CC(=O)Nc1ccc(N2CCC(N3CCC(c4cc5ccccc5c(=O)[nH]4)C3)CC2)cn1 (single isomer, unassigned) [Compound 306a] | 6.00 to 7.00 | 5.00 to 6.00 | 6.00 to 7.00 |  | + (+ indicates a value of 10 to less than 50) |
| CC(=O)Nc1ccc(N2CCC(N3CCC(c4cc5ccccc5c(=O)[nH]4)C3)CC2)cn1 (single isomer, unassigned) [Compound 306b] | > 8.00 | 6.00 to 7.00 | > 8.00 |  | +++ (+++ indicate a value of at least 100) |
| CNC(=O)c1cc(C(F)(F)F)c(N2CCC(N3CCC(c4cc5cccc(F)c5c(=O)[nH]4)C3)CC2)cn1 (single isomer, unassigned) [Compound 308a] | 6.00 to 7.00 | 5.00 to 6.00 | 6.00 to 7.00 |  | + (+ indicates a value of 10 to less than 50) |
| CNC(=O)c1cc(C(F)(F)F)c(N2CCC(N3CCC(c4cc5cccc(F)c5c(=O)[nH]4)C3)CC2)cn1 (single isomer, unassigned) [Compound 308b] | > 8.00 | 6.00 to 7.00 | > 8.00 |  | +++ (+++ indicate a value of at least 100) |
| CNC(=O)c1ccc(N2CCC(N3CCC(c4cc5c(c(=O)[nH]4)CCC(=O)N5)C3)CC2)cn1 (single isomer, unassigned) [Compound 309a, 5-(4-(3-(2,5-dioxo-1,2,3,4,5,6-hexahydro-1,6-naphthyridin-7-yl)pyrrolidin-1-yl)piperidin-1-yl)-N-methylpicolinamide] |  | < 5.00 | > 8.00 | > 8.00 | +++ (+++ indicate a value of at least 100) |
| CNC(=O)c1ccc(N2CCC(N3CCC(c4cc5c(c(=O)[nH]4)CCC(=O)N5)C3)CC2)cn1 (single isomer, unassigned) [Compound 309b, 5-(4-(3-(2,5-dioxo-1,2,3,4,5,6-hexahydro-1,6-naphthyridin-7-yl)pyrrolidin-1-yl)piperidin-1-yl)-N-methylpicolinamide] |  | < 5.00 | 7.00 to 8.00 |  | ++ (++ indicates a value of 50 to less than 100) |
| CNC(=O)c1ccc(N2CCC(N3CCC(c4ccc(CC5CC5)c(=O)[nH]4)C3)CC2)c(F)n1 (single isomer, unassigned) [Compound 313a] | 7.00 to 8.00 | < 5.00 | 7.00 to 8.00 |  | +++ (+++ indicate a value of at least 100) |
| N#Cc1ccc(N2CCC(N3CCC(c4cc5cccc(F)c5c(=O)[nH]4)C3)CC2)cc1 (single isomer, unassigned) [Compound 314a] | > 8.00 | 6.00 to 7.00 | > 8.00 |  | + (+ indicates a value of 10 to less than 50) |
| CNC(=O)c1ccc(N2CCC(N3CCC(c4cc5ncc(F)cc5c(=O)[nH]4)C3)CC2)cn1 (single isomer, unassigned) [Compound 315a] | > 8.00 | 6.00 to 7.00 | > 8.00 |  | +++ (+++ indicate a value of at least 100) |
| CNC(=O)c1ccc(N2CCC(N3CCC(c4cc5ncc(F)cc5c(=O)[nH]4)C3)CC2)cn1 (single isomer, unassigned) [Compound 315b] | > 8.00 | 6.00 to 7.00 | > 8.00 |  | +++ (+++ indicate a value of at least 100) |
| N#Cc1ccc(N2CCC(N3CCC(c4cc5cccc(F)c5c(=O)[nH]4)C3)CC2)cn1 (single isomer, unassigned) [Compound 316b] | 7.00 to 8.00 | 6.00 to 7.00 | 7.00 to 8.00 |  | + (+ indicates a value of 10 to less than 50) |

Continued, in another order:

| pKd ([1]; read-out: PARP1 HTRF) | pKd [2] | pIC50 [3] | pKd ([1]; PARP1 HTRF) | Compound | Selectivity [1] |
| --- | --- | --- | --- | --- | --- |
| 6.00 to 7.00 | 5.00 to 6.00 | 7.00 to 8.00 |  | CCc1ccc(C2CCN(C3CCN(c4ccc(C#N)cc4)CC3)C2)[nH]c1=O (single isomer, unassigned) [Compound 317a] | − (− indicates a value of less than 10) |
| > 8.00 | 6.00 to 7.00 | > 8.00 |  | CCc1ccc(C2CCN(C3CCN(c4ccc(C#N)cc4)CC3)C2)[nH]c1=O (single isomer, unassigned) [Compound 317b] | +++ (+++ indicate a value of at least 100) |
| > 8.00 | < 5.00 | > 8.00 |  | CCc1ccc(C2CCN(C3CCN(c4ccc(C(=O)NCCF)nc4F)CC3)C2)[nH]c1=O (single isomer, unassigned) [Compound 322a] | +++ (+++ indicate a value of at least 100) |
| > 8.00 | < 5.00 | > 8.00 |  | CNC(=O)c1ccc(N2CCC(N3CCC(c4cc5ncc(F)cc5c(=O)[nH]4)C3)CC2)c(F)n1 (single isomer, unassigned) [Compound 324a] | +++ (+++ indicate a value of at least 100) |
| > 8.00 | 6.00 to 7.00 | > 8.00 |  | CNC(=O)c1ccc(N2CCC(N3CCC(c4cc5ncc(F)cc5c(=O)[nH]4)C3)CC2)c(F)n1 (single isomer, unassigned) [Compound 324b] | +++ (+++ indicate a value of at least 100) |
| 6.00 to 7.00 | 5.00 to 6.00 | 6.00 to 7.00 |  | CCc1ccc(C2CCN(C3CCN(c4ccc(C#N)nc4)CC3)C2)[nH]c1=O (single isomer, unassigned) [Compound 326a] | + (+ indicates a value of 10 to less than 50) |
| > 8.00 | 5.00 to 6.00 | 7.00 to 8.00 |  | CCc1ccc(C2CCN(C3CCN(c4ccc(C#N)nc4)CC3)C2)[nH]c1=O (single isomer, unassigned) [Compound 326b] | +++ (+++ indicate a value of at least 100) |
| 6.00 to 7.00 | < 5.00 | 6.00 to 7.00 |  | CNC(=O)c1ccc(N2CCC(N3CCCC(O)(c4nc5ccccc5c(=O)[nH]4)C3)CC2)cn1 (single isomer, unassigned) [Compound 327a] | + (+ indicates a value of 10 to less than 50) |
| 6.00 to 7.00 | < 5.00 | 6.00 to 7.00 |  | CNC(=O)c1ccc(N2CCC(N3CCCC(O)(c4nc5ccccc5c(=O)[nH]4)C3)CC2)cn1 (single isomer, unassigned) [Compound 327b] | − (− indicates a value of less than 10) |
| 6.00 to 7.00 | < 5.00 | 6.00 to 7.00 |  | CNC(=O)c1ccc(N2CCC(N3CCC(F)(c4nc5ccccc5c(=O)[nH]4)C3)CC2)cn1 (single isomer, unassigned) [Compound 328a] | + (+ indicates a value of 10 to less than 50) |
| 7.00 to 8.00 | < 5.00 | 7.00 to 8.00 |  | CNC(=O)c1ccc(N2CCC(N3CCC(F)(c4nc5ccccc5c(=O)[nH]4)C3)CC2)cn1 (single isomer, unassigned) [Compound 328b] | +++ (+++ indicate a value of at least 100) |
| > 8.00 | 6.00 to 7.00 | > 8.00 |  | CNC(=O)c1ccc(N2CCC(N3CCC(c4cc5c(F)cncc5c(=O)[nH]4)C3)CC2)cn1 (single isomer, unassigned) [Compound 331a] | +++ (+++ indicate a value of at least 100) |
